Common to all, as to assay type: cell-based
One assay relates to NK-92MI. In words: Apoptosis of lymphoid malignancy cell lines: NK-92MI. Particulars: Acute NK cell lymphoma, 24 hours, read-out: Administration Dose (mean ± SD, μmol/L) Lethal Dose 50 (Apoptosis). The protocol: (§1) Each of the acute T cell leukemia cell lines Jurkat, Molt4 and CCRF-CEM, the acute B cell leukemia cell line Raji and the […] cell lines KMS11, KMS12BM, KMS26, KMS28BM, and IM9 was re-suspended in 10% FBS-containing RPMI medium at a concentration of 1.5×10^5 cells/mL, and 200 μL of each of the cell suspensions was cultured in a flat bottom 96-well plate (Costar). The acute NK cell lymphoma cell line NK-92MI was re-suspended in α-MEM medium (supplemented with 20% FBS, 1×MEM vitamine solution, 50 μM 2-mercaptoethanol and 1× penicillin/streptomycin) at a concentration of 1.5×10^5 cells/mL, and 200 μL of the cell suspension was cultured in a flat bottom 96-well plate. The cells in each well was treated with 10 μL of each of 0.1, 0.25, 0.5, 0.75 and 1 μM of the compound diluted with RPMI medium, followed by that the cells were incubated in a 5% CO2 incubator at 37° C. for 24 hours. […]
(§2) The cells were collected, and then the apoptosis thereof was analyzed by a flow cytometer after staining with Annexin V-7-AAD. The incubated cells were collected, placed in a 5-mL FACS tube (BD Falcon) and washed with 1 mL of fluorescence activated cell sorting (FACS) buffer (1%. FBS and 0.1% sodium azaide in PBS). […] The stained cells were suspended in 0.3 mL of FACS buffer, and then analyzed by a flow cytometer. […]

Another assay relates to Jurkat T cells. In words: Pro-apoptotic activity on Jurkat T cells (FITC-Annexin V / 7-AAD flow cytometry). The following applies: Homo sapiens, 72 hours, cells stained with FITC-Annexin V and 7-AAD among total cells, read-out: Cell Apoptosis Effect to Jurkat T Cell (% in 5 μM). The method, boiled down: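 Jurkat cells at 1.5×10^5 cells/mL in RPMI/10% FBS treated with compounds at […] or 5 μM final for 72 h at 37° C, vehicle containing 1% DMSO. Stained with FITC-Annexin V and 7-AAD for 15 min at room temperature in pH 7.4 Hepes binding buffer. Apoptosis = % double-stained cells by flow cytometry.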

For a further assay, the system named is KMS28BM. In words: Apoptosis of lymphoid malignancy cell lines: KMS28BM. The following applies: KMS-28BM, Multiple myeloma, 24 hours, read-out: Administration Dose (mean ± SD, μmol/L) Lethal Dose 50 (Apoptosis). As to the method:
as §1, §2

Another assay deals with KMS12BM. Nature of the assay: Apoptosis of lymphoid malignancy cell lines: KMS12BM. The following applies: Homo sapiens, KMS-12-BM, Multiple myeloma, 24 hours, read-out: Administration Dose (mean ± SD, μmol/L) Lethal Dose 50 (Apoptosis). As to the method:
as §1, §2

A further assay deals with CCRF-CEM. Nature of the assay: Apoptosis of lymphoid malignancy cell lines: CCRF-CEM. The following applies: Homo sapiens, Acute T cell leukemia, 24 hours, read-out: Administration Dose (mean ± SD, μmol/L) Lethal Dose 50 (Apoptosis). As to the method: as §1, §2
The next assay relates to KMS11. In words: Apoptosis of lymphoid malignancy cell lines: KMS11. The following applies: Homo sapiens, KMS-11; KMS11, Multiple myeloma, 24 hours; read-out: Administration Dose (mean ± SD, μmol/L) Lethal Dose 50 (Apoptosis). As to the method: as §1, §2
A further assay relates to Jurkat. In words: Apoptosis of lymphoid malignancy cell lines (Annexin V / 7-AAD): Jurkat. The following applies: Homo sapiens, Acute T cell leukemia, 24 hours, read-out: Administration Dose (mean ± SD, μmol/L) Lethal Dose 50 (Apoptosis). The protocol:
(§3) Each of the acute T cell leukemia cell lines Jurkat, Molt4 and CCRF-CEM, the acute B cell leukemia cell line Raji and the […] cell lines KMS11, KMS12BM, KMS26, KMS28BM, and IM9 was re-suspended in 10% FBS-containing RPMI medium at a concentration of 1.5×10^5 cells/mL, and 200 μL of each of the cell suspensions was cultured in a flat bottom 96-well plate (Costar). The acute NK cell lymphoma cell line NK-92MI was re-suspended in α-MEM medium (supplemented with 20% FBS, 1×MEM vitamine solution, 50 μM 2-mercaptoethanol and 1× penicillin/streptomycin) at a concentration of 1.5×10^5 cells/mL, and 200 μL of the cell suspension was cultured in a flat bottom 96-well plate. The cells in each well was treated with 10 μL of each of 0.1, 0.25, 0.5, 0.75 and 1 μM of the compound diluted with RPMI medium, followed by that the cells were incubated in a 5% CO2 incubator at 37° C. for 24 hours. In a vehicle control group, cells were treated with 10 μL of medium containing 0.05% dimetylsulfoxide (DMSO, Sigma).
(§4) The cells were collected, and then the apoptosis thereof was analyzed by a flow cytometer after staining with Annexin V-7-AAD. The incubated cells were collected, placed in a 5-mL FACS tube (BD Falcon) and washed with 1 mL of fluorescence activated cell sorting (FACS) buffer (1%. FBS and 0.1% sodium azaide in PBS). The cells were re-suspended in 0.1 mL of FACS buffer, followed by that the cells were treated and stained with phycoerythrin-Annexin V at room temperature for 10 minutes. After 10 minutes of staining, the cells were treated and stained with 7-AAD at room temperature for 5 minutes. The stained cells were suspended in 0.3 mL of FACS buffer, and then analyzed by a flow cytometer. […] Thus, compounds 065, 108, 229 and 457 of the present invention can be used as a novel anti-lymphoid malignancy drug.

Another assay deals with KMS26. Nature of the assay: Apoptosis of lymphoid malignancy cell lines: KMS26. Particulars: KMS-26; KMS26, Multiple myeloma, 24 hours; read-out: Administration Dose (mean ± SD, μmol/L) Lethal Dose 50 (Apoptosis). The protocol: as §1, §2
A further assay deals with IM9. In words: Apoptosis of lymphoid malignancy cell lines: IM9. Particulars: Homo sapiens, IM-9; IM9, Multiple myeloma, 24 hours; read-out: Administration Dose (mean ± SD, μmol/L) Lethal Dose 50 (Apoptosis). As to the method:
as §3, §4

In the next assay the test system is Raji. Nature of the assay: Apoptosis of lymphoid malignancy cell lines: Raji. Particulars: Homo sapiens, Acute B cell leukemia, 24 hours, read-out: Administration Dose (mean ± SD, μmol/L) Lethal Dose 50 (Apoptosis). The protocol: as §1, §2
A further assay relates to Molt4. Nature of the assay: Apoptosis of lymphoid malignancy cell lines: Molt4. The following applies: Homo sapiens, MOLT-4; Molt4, Acute T cell leukemia, 24 hours; read-out: Administration Dose (mean ± SD, μmol/L) Lethal Dose 50 (Apoptosis). As to the method: as §3, §4

SMILES strings stand for the structures.

For `Cc1cc(C)c(OCC(=O)N/N=C/c2ccc3cc[nH]c3c2)c(C2CCOCC2)c1` [Compound 457, (E)-N′-((1H-indol-6-yl)methylene)-2-(2,4-dimethyl-6-(tetrahydro-2H-pyran-4-yl)phenoxy)acetohydrazide], the EC50 in the assay with NK-92MI was found to be 0.46 ± 0.01 µmol/L; in the assay with KMS28BM, 0.47 ± 0.06 µmol/L; with KMS12BM, 0.22 ± 0.02 µmol/L; in the assay on CCRF-CEM it was 0.17 µmol/L; with KMS11, 0.63 ± 0.31 µmol/L; in the assay with Jurkat it was 0.2 ± 0.01 µmol/L. Also, the EC50 was found to be 0.55 ± 0.12 µmol/L in the assay on KMS26, 0.38 ± 0.01 µmol/L in the assay on IM9, 0.68 ± 0.05 µmol/L with Raji and 0.25 ± 0.11 µmol/L in the assay on Molt4. The cytotoxicity at 5 µM in the assay with Jurkat T cells came to 100%.
Regarding `Cc1cc(C)c(OCC(=O)N/N=C/c2cccc3[nH]ccc23)c(C)c1` [Compound 065, (E)-N′-((1H-indol-4-yl)methylene)-2-(mesityloxy)acetohydrazide], the cytotoxicity at 5 µM with Jurkat T cells is 100%. Besides, the EC50 worked out at 0.79 ± 0.01 µmol/L with Jurkat, 1.21 ± 0.01 µmol/L in the assay with IM9 and 1.58 ± 0.03 µmol/L with Molt4.
In the case of `Cc1cc(C)c(OCC(=O)N/N=C/c2ccc3cc[nH]c3c2)c(C)c1` [Compound 108, (E)-N′-((1H-indol-6-yl)methylene)-2-(mesityloxy)acetohydrazide], the cytotoxicity at 5 µM in the assay on Jurkat T cells is 100%. Besides, the EC50 in the assay on Jurkat was determined as 0.78 ± 0.04 µmol/L; with IM9, 1.41 ± 0.03 µmol/L; with Molt4, 1.38 ± 0.04 µmol/L.

The record behind these values is patent US9447083B2, “N-acylhydrazone derivatives for selective T cell inhibitor and anti-lymphoid malignancy drug” (CHONG KUN DANG PHARMACEUTICAL CORP., priority 2012, dated 2016).
